SMILES | melting point [°C]
N#Cc1cc2cc3c4c(c2oc1=O)CCCN4CCC3 | 250
S=C1NCCc2ccccc21 | 97 to 99
O=S1(=O)OC(c2cc(Cl)c(O)c(Br)c2)(c2cc(Cl)c(O)c(Br)c2)c2ccccc21 | 230
Oc1ccc(C2=Cc3ccccc3C(c3ccccc3)O2)cc1 (stereo not given) | 121
CCc1cc(C(F)(F)F)c2c([nH]c3ccccc32)c1CO | 150 to 153
Cc1cccc(N=Nc2ccc(N(C)C)cc2)c1 | 138
O=S(=O)(F)Cc1ccccc1 | 93
COc1ccc2c(c1)CC1(CCC(O)(c3ccc(C(C)(C)C)cc3)CC1)C2O (stereo not given) | 102 to 106
COC(=O)C1CC(=O)c2ccccc21 (stereo not given) | 45
S=C=NCc1ccc(Cl)cc1Cl | 26 to 28
CC(=O)C=CC(=O)O | 124
O=C(Cl)c1ccc(Oc2cc(Cl)cc(Cl)c2)o1 | 60 to 62
NNC(=O)c1cccc(N)c1 | 92
CCN(CCO)c1ccc(N=Nc2ccc([N+](=O)[O-])cc2)cc1 | 161
Cc1noc(C)c1[N+](=O)[O-] | 57 to 60
O=C(Cc1cc(Cl)c([N+](=O)[O-])cc1[N+](=O)[O-])c1ccccc1 | 133
NC(N)=NCCCCCCCCNCCCCCCCCN=C(N)N | 60
ON=C1CCCCCN1 | 168 to 170
ON=CC=Cc1ccccc1 | 115 to 125
CCc1ccsc1 | -89.1
CCOC(=O)c1cc2ccccc2o1 | 30.5
Clc1ccc(C=Nc2n[nH]c(N=Cc3ccc(Cl)cc3)c2Cc2ccc(Cl)cc2)cc1 | 228 to 230
CCN(CC)CC(O)CO (stereo not given) | -30
NS(=O)(=O)c1cccc(Br)c1 | 155 to 158
O=c1oc(=O)c2ccccc2c2ccccc12 | 223 to 227

SMILES | melting point [°C]
CCCCCCCCCCCCC(C)O (stereo not given) | 34
O=C(Cc1ccccc1)OCc1c([N+](=O)[O-])cccc1[N+](=O)[O-] | 90
Cc1nc2cc3ccccc3cc2o1 | 87
N#CC1(N2CCCCC2)CCN(Cc2ccccc2)CC1 | 103 to 106
Nc1c([N+](=O)[O-])cnc2ccccc12 | 273 to 275
Cc1cccc(P(c2cccc(C)c2)c2cccc(C)c2)c1 | 100 to 103
CC(C)(S)C(=O)O | 47
Cc1cccc(CO)c1[N+](=O)[O-] | 42 to 48
Cc1nc(-c2ccccc2)c(C(=O)O)s1 | 201 to 203
Cc1c(Cl)ccc(O)c1Cl | 58
COc1ccc(Cl)cc1C | 34
COc1ccc(C2Nn3c(nnc3-c3cccc([N+](=O)[O-])c3)S2)cc1 (stereo not given) | 206
CC(=O)OC(CCC(=O)c1ccccc1)c1ccccc1 (stereo not given) | 73
Cc1nc([N+](=O)[O-])c(Br)n1CCC#N | 152 to 155
CC(=O)OC1=C(C(C)C)C(=O)C2=C(C1=O)C1(C)CCCC(C)(C)C1CC2OC(C)=O (stereo not given) | 121
N#Cc1cc(F)c(Cl)cc1Cl | 46
SCc1ccc(Br)cc1 | 27
S=C=Nc1cc(Cl)c(Cl)cc1Cl | 45
O=S(=O)(Cl)c1sccc1C1OCCO1 | 93 to 94
CCCCCCNC(=O)C=Cc1ccc(O)c(O)c1 | 142
N=c1oc2ccccc2cc1-c1nc2ccccc2c(=O)[nH]1 | 275
Cc1ccc(-c2cc(-c3ccccn3)nc(-c3ccccn3)c2)cc1 | 169
COc1cccc(OC)c1SC | 79 to 80
O=Cc1cc(F)cc2c1OCOC2 | 113 to 114
CC(=O)Oc1cccc(N=[N+]([O-])c2cccc(OC(C)=O)c2)c1 | 102

SMILES | melting point [°C]
CN(CC(=O)O)C(=N)N | 255
Nc1cc(F)ccc1-n1ccnc1 | 127
c1ccc(-c2nc(-c3ccccn3)nc(-c3ccccn3)n2)nc1 | 250
C=Cc1cccc(C(N)=O)c1 | 133
CC(=O)OC1CCC2(C)C(CC(=O)C3C2CC(OC(C)=O)C2(C)C(C(C)CCC(=O)O)CCC32)C1 (stereo not given) | 105 to 107
CC(C)(C)c1ccc(C2CCC3(CC2)Cc2ccc(C(=O)n4cc(CCCC(=O)O)c5ccccc54)cc2C3)cc1 (stereo not given) | 120 to 150
CC(C)CCCCCO | -106
CCCCOC(=O)c1ccccc1C(=O)O | 73.5
COC(=O)c1cnc(Cl)nc1 | 76 to 80
CC12CCC(O)CC1CCC1C2CCC2(C)C(C3=CC(=O)OC3)C(O)CC12O (stereo not given) | 234
O=C(c1ccc(O)c(O)c1)c1c(O)cc(O)cc1O | 222
O=S1(=O)C=Cc2ccccc21 | 138 to 142
CC(=O)N1CCc2ccccc21 | 102 to 104
CCOC(=O)c1sc(SCc2ccccc2)c2c1CC(C)(C)CC2=O | 119 to 122
BrC(Br)c1ccc(C(Br)Br)cc1 | 170 to 173
CCOC(=O)c1csc(C2COc3ccccc3O2)n1 (stereo not given) | 66.5 to 69.8
Cc1c(C)c(C)c(O)c(C)c1C | 128
Nc1ccccc1S(N)(=O)=O | 155
CCN1C(=O)NC(c2ccccc2)C1=O (stereo not given) | 94
Cc1cc([N+](=O)[O-])c(Cl)c([N+](=O)[O-])c1 | 114 to 116
Br/C(=C(/Br)c1ccccc1)c1ccccc1 | 228
OCc1snnc1-c1ccccc1 | 116 to 118
Cc1noc(-c2ccccc2Br)n1 | 43 to 44
C[C@]12C=C[C@H](O1)[C@H]1C(=O)OC(=O)[C@H]12 | 69 to 70
NC(=S)Nc1ccccc1F | 143 to 145

SMILES | melting point [°C]
Cc1cc(C=O)cc(C)c1O | 114
Nc1nnc(-c2ccccc2)s1 | > 270
N#C/C(=C\c1cccs1)c1nc(-c2cccc3ccccc23)cs1 | 205 to 207
NS(=O)(=O)c1cc(Cl)ccc1F | 135
COc1cc([N+](=O)[O-])c(Cl)cc1N | 131 to 133
Cc1ccc(-c2onc(C(=O)c3ccc4ccccc4c3)c2S(=O)(=O)c2ccccc2)cc1 | 108
Nc1c(F)c(F)c(Br)c(F)c1F | 59 to 61
COc1cccc(Nc2ccccc2)c1 | 73
O=C(O)CCc1ccc(F)cc1 | 90
CCOC(=O)Nc1ccc(NCc2ccc(F)cc2)nc1N | 114
CSc1nc(N)nc(C23CC4CC(CC(C4)C2)C3)n1 | 208 to 210
c1ccc2c3c(ccc2c1)-c1cccc2cccc-3c12 | 166
Cc1cc(N=Nc2ccc(N=Nc3ccccc3)cc2)ccc1N=Nc1ccc(N=Nc2ccccc2)cc1 | 209
CCOC(=O)Cc1ccc(Br)cc1 | 30
CC12C=CC=CC1NC(=C1C(=O)c3ccccc3C1=O)C=C2 (stereo not given) | 203
Nc1c([N+](=O)[O-])sc2ccccc12 | 220 to 221
O=C1OC(=O)C23Cc4ccccc4CC12Cc1ccccc1C3 (stereo not given) | 267 to 270
Cc1nc(-c2cccc(Br)c2)cs1 | 56 to 60
O=C1C(CCl)(CCl)CCC1(CCl)CCl | 72
Cc1csc2ccc(Cl)cc12 | 35
O=C(O)c1ccc(Cl)nc1Cl | 148
O=C(O)C1(O)CC1 | 108 to 110
CCOc1ccc2cc(O)c(O)cc2c1 | 132
Sc1nccc(-c2ccco2)n1 | 200
c1coc(CSSCc2ccco2)c1 | 10

SMILES | melting point [°C]
Cn1c(C(=O)O)ccc1S(N)(=O)=O | 210 to 212
COC1=CC(=O)C(C#N)C(c2ccccc2)C1 (stereo not given) | 167
COCCOc1cnc(NS(=O)(=O)c2ccccc2)nc1 | 152
O=S(=O)(Cl)c1cccc(Cl)c1Cl | 61 to 63
CC(=O)c1sc(-c2ccc(C(C)(C)C)cc2)cc1N | 179 to 181
CC1=C(C)C2=CC=C3C(O)=C(CC(C)O)C(=O)C(O)=C3C2(C)CC1=O (stereo not given) | 187
CC(NC(=O)COCCN1C(=O)c2ccccc2C1=O)[P+]([O-])(Oc1ccccc1)Oc1ccccc1 (stereo not given) | 107
COc1ccc(C=C2C(=O)OC(C)(C)OC2=O)cc1OC | 164
COC(=O)C1=C(N)Oc2cc(C)n(CCc3ccccc3)c(=O)c2C1c1cccc([N+](=O)[O-])c1 (stereo not given) | 216
COC(=O)c1ccc(C)c(OC)c1 | 49
COc1ccc(-c2csc(/C(C#N)=C\c3cccs3)n2)cc1 | 140
Cc1ccccc1NC=C1C(=O)NN=C1c1c(O)c2ccccc2n(C)c1=O | 288
O=C(OCC1OC(O)(COC(=O)c2cccnc2)C(OC(=O)c2cccnc2)C1OC(=O)c1cccnc1)c1cccnc1 (stereo not given) | 141
C1CN(SSN2CCOCC2)CCO1 | 124
COc1ccc(OCC(O)CN)cc1 (stereo not given) | 110 to 112
O=C(C(C(F)(F)F)C(F)(F)F)N(Cc1ccccc1)Cc1ccccc1 | 76
COC(=O)[C@]12c3ccccc3[C@]34c5ccccc5[C@H]1[C@@]32C(=O)O[C@@H]4C | 203
Cc1ccc(C)c(N/N=C(/C#N)c2nc(C)c(/N=N/c3ccccc3)s2)c1 | 201 to 203
O=C1/C(=N\Nc2cc(-c3ccccc3)n[nH]2)C(C(F)(F)F)=NN1c1ccccc1 | 280
O=Cc1ccc2oc(C(=O)c3ccc(Br)cc3)cc2c1 | 177 to 178
COC(=O)C1(S(=O)(=O)c2ccc(Cl)cc2)CC1 | 116
CC(=O)C1C(=O)c2ccccc2CC1c1ccccc1 (stereo not given) | 67
CCC(=O)c1cccc([N+](=O)[O-])c1 | 101
N#CCc1ccccc1Br | 19
COc1ccc(C#N)c(F)c1F | 84
